Reference: patent US6410577B1, “Substituted 8,8a-dihydro-3ah-indeno[1,2-d]thiazoles, processes for their preparation and their use as medicaments” (Aventis Pharma Deutschland GmbH, priority 2000, dated 2002)

System: female NMRI mice
Experiment: Anorectic action: milk consumption of fasted mice after oral administration
Format: in vivo, mouse
Description: The efficacy of the compounds was tested as follows:
The anorectic action was tested on female NMRI mice. After withdrawal of food for 24 hours, a test preparation of the invention was administered via a stomach tube. Kept individually and with free access to drinking water, the animals were offered evaporated milk 30 minutes after the administration of the preparation. The consumption of evaporated milk was determined half-hourly for 1.5 hours and the general condition of the animals was observed. The measured milk consumption was compared with that of untreated control animals.

OC1c2cc(Cl)ccc2C2(O)N=C(c3ccccc3)SC12 (centres unmarked) [Example 1, 6-Chloro-2-phenyl-8,8a-dihydroindeno[1,2-d]thiazole-3a,8-diol]
cumulated milk consumption of the treated animals (food withdrawn for 24 hours, oral dose 30 mg/kg via stomach tube, evaporated milk offered 30 minutes after administration, consumption determined half-hourly for 1.5 hours): 5/1.06 ml | Reduction of the cumulated milk consumption in % of the control (oral dose 30 mg/kg, compared to untreated control animals, 1.5 hours): 31%
